The source made the active and inactive calls. Cut-off read from the data, not from the text of the source, for most assays here: actives have a measured Kd and inactives only a lower limit.
Assays:
[1] = biological target: Casein kinase I isoform gamma-1 (Homo sapiens, UniProt Q9HCP0)
[2] = biological target: Protein kinase C theta type (Homo sapiens, UniProt Q04759)
[3] = biological target: Ribosomal protein S6 kinase alpha-4 (Homo sapiens, UniProt O75676)
[4] = biological target: Mitogen-activated protein kinase kinase kinase kinase 5 (Homo sapiens, UniProt Q9Y4K4)
[5] = biological target: Ribosomal protein S6 kinase beta-1 (Homo sapiens, UniProt P23443)
[6] = biological target: Tyrosine-protein kinase CSK (Homo sapiens, UniProt P41240)
[7] = biological target: Cyclin-dependent kinase 7 (Homo sapiens, UniProt P50613)
[8] = biological target: T1, Mitogen-activated protein kinase 15 (Homo sapiens, UniProt Q8TD08)
T1 sequence (Q8TD08 whole entry): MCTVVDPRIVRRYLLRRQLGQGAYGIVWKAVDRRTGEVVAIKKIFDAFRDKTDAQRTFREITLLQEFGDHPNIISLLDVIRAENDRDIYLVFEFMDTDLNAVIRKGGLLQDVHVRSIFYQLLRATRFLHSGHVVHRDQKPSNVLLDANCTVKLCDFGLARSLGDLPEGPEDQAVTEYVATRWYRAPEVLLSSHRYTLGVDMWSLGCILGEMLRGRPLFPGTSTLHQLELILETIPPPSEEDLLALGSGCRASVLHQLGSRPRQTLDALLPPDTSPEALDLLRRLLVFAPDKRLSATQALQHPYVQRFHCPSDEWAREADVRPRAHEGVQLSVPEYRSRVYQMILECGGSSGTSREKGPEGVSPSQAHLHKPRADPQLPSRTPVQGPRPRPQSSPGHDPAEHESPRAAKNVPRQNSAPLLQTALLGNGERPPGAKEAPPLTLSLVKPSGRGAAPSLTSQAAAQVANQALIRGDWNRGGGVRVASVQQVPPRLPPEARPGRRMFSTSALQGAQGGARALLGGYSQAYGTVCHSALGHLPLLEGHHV

[9] = biological target: T2, NUAK family SNF1-like kinase 2 (Homo sapiens, UniProt Q9H093)
T2 sequence (Q9H093 whole entry): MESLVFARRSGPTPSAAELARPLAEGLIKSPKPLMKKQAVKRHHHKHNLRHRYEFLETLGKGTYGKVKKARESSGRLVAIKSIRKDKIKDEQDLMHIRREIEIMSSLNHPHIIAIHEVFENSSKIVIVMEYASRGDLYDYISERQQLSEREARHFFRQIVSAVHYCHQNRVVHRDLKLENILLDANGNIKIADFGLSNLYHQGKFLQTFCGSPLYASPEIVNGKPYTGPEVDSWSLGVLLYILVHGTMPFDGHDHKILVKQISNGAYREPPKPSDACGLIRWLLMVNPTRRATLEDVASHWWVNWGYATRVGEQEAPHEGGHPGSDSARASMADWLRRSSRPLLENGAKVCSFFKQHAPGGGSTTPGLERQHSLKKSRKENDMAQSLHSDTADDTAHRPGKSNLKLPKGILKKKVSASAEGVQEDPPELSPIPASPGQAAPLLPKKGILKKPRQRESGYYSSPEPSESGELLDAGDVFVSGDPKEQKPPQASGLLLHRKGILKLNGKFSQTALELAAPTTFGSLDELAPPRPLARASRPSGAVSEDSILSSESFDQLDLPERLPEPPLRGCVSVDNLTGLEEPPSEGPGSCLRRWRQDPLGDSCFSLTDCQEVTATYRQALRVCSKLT

[10] = biological target: TRAF2 and NCK-interacting protein kinase (Homo sapiens, UniProt Q9UKE5)
[11] = biological target: Fibroblast growth factor receptor 1 (Homo sapiens, UniProt P11362)
[12] = biological target: Receptor-interacting serine/threonine-protein kinase 2 (Homo sapiens, UniProt O43353)
[13] = biological target: Casein kinase I isoform delta (Homo sapiens, UniProt P48730)
Activated CDC42 kinase 1 = Activated CDC42 kinase 1 (Homo sapiens, UniProt Q07912)
[14] = biological target: Non-receptor tyrosine-protein kinase TYK2 (Homo sapiens, UniProt P29597)
[15] = biological target: Tyrosine-protein kinase ABL2 (Homo sapiens, UniProt P42684)
[16] = biological target: Putative heat shock protein HSP 90-beta 2 (Homo sapiens, UniProt Q58FF8)
Deoxycytidine kinase = Deoxycytidine kinase (Homo sapiens, UniProt P27707)
[17] = biological target: Inosine-5'-monophosphate dehydrogenase 2 (Homo sapiens, UniProt P12268)
[18] = biological target: S-adenosylmethionine synthase isoform type-2 (Homo sapiens, UniProt P31153)
Note: in the data inactive means no Kd found up to 30 µM.

Chain of Casein kinase I isoform gamma-1 (Q9HCP0 whole entry, canonical isoform): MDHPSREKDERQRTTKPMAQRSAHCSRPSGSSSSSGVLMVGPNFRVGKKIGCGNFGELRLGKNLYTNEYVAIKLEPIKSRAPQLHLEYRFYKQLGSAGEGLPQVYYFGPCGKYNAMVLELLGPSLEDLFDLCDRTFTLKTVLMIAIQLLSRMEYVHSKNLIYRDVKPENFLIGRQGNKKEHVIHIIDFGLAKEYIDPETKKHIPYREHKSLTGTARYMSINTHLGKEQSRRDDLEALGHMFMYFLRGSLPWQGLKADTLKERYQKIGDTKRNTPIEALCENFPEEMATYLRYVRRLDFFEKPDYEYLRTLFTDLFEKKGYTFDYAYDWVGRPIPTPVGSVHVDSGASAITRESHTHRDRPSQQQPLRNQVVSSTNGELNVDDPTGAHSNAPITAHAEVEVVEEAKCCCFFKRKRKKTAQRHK
Chain of S-adenosylmethionine synthase isoform type-2 (P31153 whole entry, canonical isoform): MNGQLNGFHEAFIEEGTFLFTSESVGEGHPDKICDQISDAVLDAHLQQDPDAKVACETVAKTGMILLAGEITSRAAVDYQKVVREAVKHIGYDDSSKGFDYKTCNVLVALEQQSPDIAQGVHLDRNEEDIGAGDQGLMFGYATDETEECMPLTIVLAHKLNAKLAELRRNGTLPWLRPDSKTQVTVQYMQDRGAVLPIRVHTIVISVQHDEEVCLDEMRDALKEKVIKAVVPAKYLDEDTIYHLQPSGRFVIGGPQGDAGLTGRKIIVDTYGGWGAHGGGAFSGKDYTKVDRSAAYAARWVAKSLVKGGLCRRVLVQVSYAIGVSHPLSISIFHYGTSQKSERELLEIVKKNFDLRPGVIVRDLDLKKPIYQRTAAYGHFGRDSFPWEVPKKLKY
Chain of Casein kinase I isoform delta (P48730 whole entry, canonical isoform): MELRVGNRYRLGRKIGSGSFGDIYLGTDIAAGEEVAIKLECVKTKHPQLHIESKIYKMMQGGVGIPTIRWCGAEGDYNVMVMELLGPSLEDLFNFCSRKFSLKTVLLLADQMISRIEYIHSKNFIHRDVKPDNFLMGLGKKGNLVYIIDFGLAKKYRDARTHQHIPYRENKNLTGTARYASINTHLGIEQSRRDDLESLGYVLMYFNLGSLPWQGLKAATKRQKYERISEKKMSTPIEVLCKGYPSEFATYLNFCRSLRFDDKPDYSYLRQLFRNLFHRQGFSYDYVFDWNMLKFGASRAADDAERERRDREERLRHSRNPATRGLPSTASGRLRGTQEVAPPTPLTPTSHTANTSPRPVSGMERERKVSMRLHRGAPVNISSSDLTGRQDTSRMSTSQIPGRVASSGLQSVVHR
Chain of Protein kinase C theta type (Q04759 whole entry): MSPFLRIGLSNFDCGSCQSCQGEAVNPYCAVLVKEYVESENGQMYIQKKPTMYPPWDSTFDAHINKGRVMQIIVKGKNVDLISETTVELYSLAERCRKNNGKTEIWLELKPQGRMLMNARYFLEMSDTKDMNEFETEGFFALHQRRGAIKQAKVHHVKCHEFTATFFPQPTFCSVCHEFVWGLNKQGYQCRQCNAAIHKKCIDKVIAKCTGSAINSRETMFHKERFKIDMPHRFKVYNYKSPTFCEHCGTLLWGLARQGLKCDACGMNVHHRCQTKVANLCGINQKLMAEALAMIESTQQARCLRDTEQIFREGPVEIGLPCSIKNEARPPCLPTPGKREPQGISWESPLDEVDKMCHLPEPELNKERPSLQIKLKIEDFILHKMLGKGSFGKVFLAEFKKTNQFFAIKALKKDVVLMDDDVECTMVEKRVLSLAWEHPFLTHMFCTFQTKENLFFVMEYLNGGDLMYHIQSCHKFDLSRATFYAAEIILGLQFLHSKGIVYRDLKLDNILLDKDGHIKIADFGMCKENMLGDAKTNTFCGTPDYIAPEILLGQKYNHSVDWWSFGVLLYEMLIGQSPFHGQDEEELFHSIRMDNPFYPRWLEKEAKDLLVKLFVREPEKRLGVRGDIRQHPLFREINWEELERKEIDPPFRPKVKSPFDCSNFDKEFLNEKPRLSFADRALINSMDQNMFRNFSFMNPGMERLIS
Chain of Deoxycytidine kinase (P27707 whole entry): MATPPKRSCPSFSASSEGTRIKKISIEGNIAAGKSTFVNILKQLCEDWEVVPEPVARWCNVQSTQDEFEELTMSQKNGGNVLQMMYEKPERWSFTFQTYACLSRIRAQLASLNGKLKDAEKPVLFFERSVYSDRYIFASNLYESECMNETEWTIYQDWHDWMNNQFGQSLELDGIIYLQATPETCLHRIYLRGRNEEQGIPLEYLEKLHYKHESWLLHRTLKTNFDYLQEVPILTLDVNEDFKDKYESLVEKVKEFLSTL
Chain of Fibroblast growth factor receptor 1 (P11362 whole entry): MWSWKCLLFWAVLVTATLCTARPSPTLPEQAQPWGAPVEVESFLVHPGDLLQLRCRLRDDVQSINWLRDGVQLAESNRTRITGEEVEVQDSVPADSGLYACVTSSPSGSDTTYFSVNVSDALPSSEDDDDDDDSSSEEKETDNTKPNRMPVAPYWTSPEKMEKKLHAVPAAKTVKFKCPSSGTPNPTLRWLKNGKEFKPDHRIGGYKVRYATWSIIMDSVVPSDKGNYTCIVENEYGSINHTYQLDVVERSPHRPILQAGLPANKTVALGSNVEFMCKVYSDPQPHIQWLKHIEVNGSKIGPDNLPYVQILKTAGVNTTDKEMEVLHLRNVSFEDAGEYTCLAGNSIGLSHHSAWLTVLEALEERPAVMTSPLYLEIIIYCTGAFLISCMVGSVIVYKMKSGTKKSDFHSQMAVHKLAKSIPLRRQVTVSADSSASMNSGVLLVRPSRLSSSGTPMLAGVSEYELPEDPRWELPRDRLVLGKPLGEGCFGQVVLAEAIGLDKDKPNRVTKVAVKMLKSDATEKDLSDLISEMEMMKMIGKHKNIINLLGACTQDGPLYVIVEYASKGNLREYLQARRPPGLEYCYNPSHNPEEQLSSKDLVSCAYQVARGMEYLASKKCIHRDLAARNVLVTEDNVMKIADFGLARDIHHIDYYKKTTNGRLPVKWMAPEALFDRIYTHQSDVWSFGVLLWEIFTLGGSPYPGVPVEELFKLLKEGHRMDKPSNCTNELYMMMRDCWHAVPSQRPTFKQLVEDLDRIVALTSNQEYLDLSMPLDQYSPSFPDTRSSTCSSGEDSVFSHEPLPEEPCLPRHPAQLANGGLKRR
Chain of Cyclin-dependent kinase 7 (P50613 whole entry): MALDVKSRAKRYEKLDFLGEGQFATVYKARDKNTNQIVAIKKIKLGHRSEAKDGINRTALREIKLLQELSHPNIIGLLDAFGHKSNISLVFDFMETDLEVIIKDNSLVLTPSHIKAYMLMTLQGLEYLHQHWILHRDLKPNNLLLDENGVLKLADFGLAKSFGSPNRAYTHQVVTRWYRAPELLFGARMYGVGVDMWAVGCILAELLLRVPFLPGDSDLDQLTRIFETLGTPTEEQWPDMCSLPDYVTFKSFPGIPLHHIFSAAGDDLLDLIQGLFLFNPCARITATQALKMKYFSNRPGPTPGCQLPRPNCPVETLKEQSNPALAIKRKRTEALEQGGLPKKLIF
Chain of Receptor-interacting serine/threonine-protein kinase 2 (O43353 whole entry, canonical isoform): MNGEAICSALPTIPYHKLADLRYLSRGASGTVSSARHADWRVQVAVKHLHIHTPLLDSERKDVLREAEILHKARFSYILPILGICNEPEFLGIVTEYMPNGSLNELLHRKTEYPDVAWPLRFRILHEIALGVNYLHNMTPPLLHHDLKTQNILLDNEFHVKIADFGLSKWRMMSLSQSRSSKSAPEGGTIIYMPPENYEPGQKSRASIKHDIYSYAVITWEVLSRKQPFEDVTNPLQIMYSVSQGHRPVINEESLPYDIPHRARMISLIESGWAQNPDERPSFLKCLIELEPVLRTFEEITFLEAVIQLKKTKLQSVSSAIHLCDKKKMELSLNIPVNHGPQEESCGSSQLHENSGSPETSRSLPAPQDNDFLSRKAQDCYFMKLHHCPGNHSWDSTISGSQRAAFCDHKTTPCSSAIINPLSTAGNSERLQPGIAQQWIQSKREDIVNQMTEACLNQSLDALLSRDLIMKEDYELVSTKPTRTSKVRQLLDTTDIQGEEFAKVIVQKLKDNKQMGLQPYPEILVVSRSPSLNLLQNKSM
Chain of Ribosomal protein S6 kinase alpha-4 (O75676 whole entry): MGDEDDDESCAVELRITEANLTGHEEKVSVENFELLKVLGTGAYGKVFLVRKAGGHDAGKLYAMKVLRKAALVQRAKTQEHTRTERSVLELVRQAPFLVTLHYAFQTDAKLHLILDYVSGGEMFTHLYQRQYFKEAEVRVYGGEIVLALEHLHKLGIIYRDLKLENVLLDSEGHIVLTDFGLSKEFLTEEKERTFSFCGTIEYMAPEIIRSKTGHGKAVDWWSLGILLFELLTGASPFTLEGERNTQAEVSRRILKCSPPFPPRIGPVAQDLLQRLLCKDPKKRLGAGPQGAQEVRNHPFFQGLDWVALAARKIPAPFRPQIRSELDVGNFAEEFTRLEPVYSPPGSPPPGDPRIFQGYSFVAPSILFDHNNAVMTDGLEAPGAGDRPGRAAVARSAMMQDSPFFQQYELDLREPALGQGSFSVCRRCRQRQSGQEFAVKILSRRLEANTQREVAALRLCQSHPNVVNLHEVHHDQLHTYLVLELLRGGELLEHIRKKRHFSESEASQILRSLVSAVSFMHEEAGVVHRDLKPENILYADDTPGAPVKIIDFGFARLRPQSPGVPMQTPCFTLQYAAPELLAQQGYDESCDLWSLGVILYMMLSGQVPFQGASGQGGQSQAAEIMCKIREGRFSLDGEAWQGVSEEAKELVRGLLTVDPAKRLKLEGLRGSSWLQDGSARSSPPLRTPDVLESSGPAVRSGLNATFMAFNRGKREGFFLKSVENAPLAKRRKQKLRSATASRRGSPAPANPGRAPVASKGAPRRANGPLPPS

| Kd [1] | Kd [2] | Kd [3] | Kd [4] | Kd [5] | Kd [6] | Kd [7] | Kd [9] | Kd [10] | Kd [11] | Kd [12] | Kd [13] | Kd (Activated CDC42 kinase 1) | Kd [14] | Kd [15] | Kd [16] | Kd (Deoxycytidine kinase) | Kd [17] | Kd [18] | Structure (SMILES) | Kd [8] |
| --- | --- | --- | --- | --- | --- | --- | --- | --- | --- | --- | --- | --- | --- | --- | --- | --- | --- | --- | --- | --- |
| > 30 µM (inactive) | > 30 µM (inactive) | > 30 µM (inactive) | > 30 µM (inactive) | > 30 µM (inactive) | > 30 µM (inactive) | > 30 µM (inactive) | > 30 µM (inactive) | > 30 µM (inactive) | > 30 µM (inactive) | > 30 µM (inactive) | > 30 µM (inactive) | > 30 µM (inactive) | > 30 µM (inactive) | > 30 µM (inactive) |  | > 30 µM (inactive) | > 30 µM (inactive) |  | CO[C@H]1C[C@@H]2CC[C@@H](C)[C@@](O)(O2)C(=O)C(=O)N2CCCC[C@H]2C(=O)O[C@H]([C@H](C)C[C@@H]2CC[C@@H](OP(C)(C)=O)[C@H](OC)C2)CC(=O)[C@H](C)/C=C(\C)[C@@H](O)[C@@H](OC)C(=O)[C@H](C)C[C@H](C)/C=C/C=C/C=C/1C [RIDAFOROLIMUS] | > 30 µM (inactive) |
| > 30 µM (inactive) | > 30 µM (inactive) | > 30 µM (inactive) | > 30 µM (inactive) | > 30 µM (inactive) | > 30 µM (inactive) | > 30 µM (inactive) |  | > 30 µM (inactive) | > 30 µM (inactive) | > 30 µM (inactive) | > 30 µM (inactive) | > 30 µM (inactive) | > 30 µM (inactive) | > 30 µM (inactive) | > 30 µM (inactive) | > 30 µM (inactive) | > 30 µM (inactive) | > 30 µM (inactive) | CO[C@H]1C[C@@H]2CC[C@@H](C)[C@@](O)(O2)C(=O)C(=O)N2CCCC[C@H]2C(=O)O[C@H]([C@H](C)C[C@@H]2CC[C@@H](O)[C@H](OC)C2)CC(=O)[C@H](C)/C=C(\C)[C@@H](O)[C@@H](OC)C(=O)[C@H](C)C[C@H](C)/C=C/C=C/C=C/1C [SIROLIMUS] | > 30 µM (inactive) |
| > 30 µM (inactive) | > 30 µM (inactive) | > 30 µM (inactive) | > 30 µM (inactive) | > 30 µM (inactive) | > 30 µM (inactive) | > 30 µM (inactive) |  | > 30 µM (inactive) | > 30 µM (inactive) | > 30 µM (inactive) | > 30 µM (inactive) | > 30 µM (inactive) | > 30 µM (inactive) | > 30 µM (inactive) | > 30 µM (inactive) | > 30 µM (inactive) | > 30 µM (inactive) | > 30 µM (inactive) | O=C1NC(=O)[C@@H](c2cn3c4c(cccc24)CCC3)[C@@H]1c1c[nH]c2ccccc12 [TIVANTINIB] | > 30 µM (inactive) |
| > 30 µM (inactive) | > 30 µM (inactive) | > 30 µM (inactive) | > 30 µM (inactive) | > 30 µM (inactive) | > 30 µM (inactive) | > 30 µM (inactive) |  | > 30 µM (inactive) | > 30 µM (inactive) | > 30 µM (inactive) | > 30 µM (inactive) | > 30 µM (inactive) | > 30 µM (inactive) | 0.099 µM (active) | > 30 µM (inactive) | > 30 µM (inactive) | > 30 µM (inactive) | > 30 µM (inactive) | C[C@@H](NC(=O)c1ncnc(N)c1Cl)c1ncc(C(=O)Nc2cc(C(F)(F)F)c(Cl)cn2)s1 [TOVORAFENIB] | > 30 µM (inactive) |

The remaining lines, values behind:

| Structure (SMILES) | Kd [1] | Kd [2] | Kd [3] | Kd [4] | Kd [5] | Kd [6] | Kd [7] | Kd [9] | Kd [10] | Kd [11] | Kd [12] | Kd [13] | Kd (Activated CDC42 kinase 1) | Kd [14] | Kd [15] | Kd [16] | Kd (Deoxycytidine kinase) | Kd [17] | Kd [18] | Kd [8] |
| --- | --- | --- | --- | --- | --- | --- | --- | --- | --- | --- | --- | --- | --- | --- | --- | --- | --- | --- | --- | --- |
| Nc1ncnc2c1c(-c1cccc(OCc3ccccc3)c1)cn2[C@H]1C[C@@H](CN2CCC2)C1 [AEW-541] | > 30 µM (inactive) | > 30 µM (inactive) | > 30 µM (inactive) | 2.49 µM (active) | > 30 µM (inactive) | > 30 µM (inactive) | > 30 µM (inactive) | > 30 µM (inactive) | > 30 µM (inactive) | > 30 µM (inactive) | 0.355 µM (active) | > 30 µM (inactive) | > 30 µM (inactive) | > 30 µM (inactive) | > 30 µM (inactive) | > 30 µM (inactive) | > 30 µM (inactive) |  |  | > 30 µM (inactive) |
| Cc1csc(-c2nnc(Nc3ccc(Oc4ncccc4-c4ccnc(N)n4)cc3)c3ccccc23)c1 [AMG-900] | > 30 µM (inactive) | > 30 µM (inactive) | 2.07 µM (active) | 1.71 µM (active) | > 30 µM (inactive) | > 30 µM (inactive) | > 30 µM (inactive) | > 30 µM (inactive) | > 30 µM (inactive) | > 30 µM (inactive) | > 30 µM (inactive) | > 30 µM (inactive) | > 30 µM (inactive) | > 30 µM (inactive) | > 30 µM (inactive) | > 30 µM (inactive) | > 30 µM (inactive) | > 30 µM (inactive) |  | > 30 µM (inactive) |
| NC(=O)Nc1cc(-c2cccc(F)c2)sc1C(=O)N[C@H]1CCCNC1 [AZD-7762] | > 30 µM (inactive) | > 30 µM (inactive) | 0.879 µM (active) | 0.197 µM (active) | > 30 µM (inactive) |  | > 30 µM (inactive) |  | 0.094 µM (active) | > 30 µM (inactive) | > 30 µM (inactive) | > 30 µM (inactive) | 1.09 µM (active) | > 30 µM (inactive) | 0.899 µM (active) | > 30 µM (inactive) | > 30 µM (inactive) | > 30 µM (inactive) |  | > 30 µM (inactive) |
| Cc1cc(Nc2ncc(Cl)c(Nc3ccccc3S(=O)(=O)C(C)C)n2)c(OC(C)C)cc1C1CCNCC1 [CERITINIB] | > 30 µM (inactive) | > 30 µM (inactive) | > 30 µM (inactive) | > 30 µM (inactive) | > 30 µM (inactive) | > 30 µM (inactive) | > 30 µM (inactive) | > 30 µM (inactive) | > 30 µM (inactive) | > 30 µM (inactive) | > 30 µM (inactive) | > 30 µM (inactive) | 0.929 µM (active) | > 30 µM (inactive) | > 30 µM (inactive) | > 30 µM (inactive) | > 30 µM (inactive) |  | > 30 µM (inactive) | > 30 µM (inactive) |
| CNC(=O)c1nn(C)c2c1C(C)(C)Cc1cnc(Nc3ccc(N4CCN(C)CC4)cc3)nc1-2 [MILCICLIB] | > 30 µM (inactive) | > 30 µM (inactive) | > 30 µM (inactive) | 10 µM (active) | > 30 µM (inactive) | > 30 µM (inactive) |  | > 30 µM (inactive) |  | 1.42 µM (active) | > 30 µM (inactive) | 0.236 µM (active) | 0.9 µM (active) | > 30 µM (inactive) | 3.75 µM | > 30 µM (inactive) | > 30 µM (inactive) |  | > 30 µM (inactive) | > 30 µM (inactive) |
| FC(F)(F)c1ccc(/C=C/c2nc(COc3ccc(CCCCn4ccnn4)cc3)co2)cc1 [MUBRITINIB] | > 30 µM (inactive) | > 30 µM (inactive) | > 30 µM (inactive) | > 30 µM (inactive) | > 30 µM (inactive) | > 30 µM (inactive) | > 30 µM (inactive) | > 30 µM (inactive) | > 30 µM (inactive) | > 30 µM (inactive) | > 30 µM (inactive) | > 30 µM (inactive) | > 30 µM (inactive) | > 30 µM (inactive) | > 30 µM (inactive) | > 30 µM (inactive) | > 30 µM (inactive) |  |  | > 30 µM (inactive) |
